Where “and” joins values, the source holds several entries; their conditions need not be identical. Identical values can stand only once. Inconclusive results and toxic doses are left out. Rule for the calls: active = survival T/C of 150% or more; inactive = T/C below 125% in these data.
Tested on: CD2F1 mice, L1210 leukemia ip, survival T/C
Experiment: NCI In Vivo Anticancer Drug Screen. Data for tumor model L1210 Leukemia (intraperitoneal) in CD2F1 (CDF1) mice
Settings: endpoint: mean survival time, higher = longer survival
Procedure, shortened: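 Implant tumor; dose compound or vehicle; measure endpoint in both groups; report treated divided by control.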

[1] = dose: 100.0 mg/kg/injection, schedule: Q01DX009 (ip), vehicle: saline with Tween-80
[2] = dose: 200.0 mg/kg/injection, schedule: Q01DX009 (ip), vehicle: saline with Tween-80
[3] = dose: 400.0 mg/kg/injection, schedule: Q01DX009 (ip), vehicle: saline with Tween-80
[4] = dose: 100.0 mg/kg/injection, schedule: Q04DX003 (ip), vehicle: saline
[5] = dose: 75.0 mg/kg/injection, schedule: Q01DX001 (ip), vehicle: saline
[6] = dose: 150.0 mg/kg/injection, schedule: Q01DX001 (ip), vehicle: saline
[7] = dose: 300.0 mg/kg/injection, schedule: Q01DX001 (ip), vehicle: saline
[8] = dose: 50.0 mg/kg/injection, schedule: Q04DX002 (ip), vehicle: saline with Tween-80
[9] = dose: 100.0 mg/kg/injection, schedule: Q04DX002 (ip), vehicle: saline with Tween-80
[10] = dose: 100.0 mg/kg/injection, schedule: Q01DX001 (ip), vehicle: saline with Tween-80
[11] = dose: 200.0 mg/kg/injection, schedule: Q01DX001 (ip), vehicle: saline with Tween-80
[12] = dose: 200.0 mg/kg/injection, schedule: Q04DX002 (ip), vehicle: saline with Tween-80
[13] = dose: 400.0 mg/kg/injection, schedule: Q01DX001 (ip), vehicle: saline with Tween-80
[14] = dose: 400.0 mg/kg/injection, schedule: Q04DX002 (ip), vehicle: saline with Tween-80
[15] = dose: 12.5 mg/kg/injection, schedule: Q01DX009 (ip), vehicle: saline with Tween-80
[16] = dose: 25.0 mg/kg/injection, schedule: Q01DX009 (ip), vehicle: saline with Tween-80
[17] = dose: 50.0 mg/kg/injection, schedule: Q01DX009 (ip), vehicle: saline with Tween-80
[18] = dose: 100.0 mg/kg/injection, schedule: Q04DX003 (ip), vehicle: saline with Tween-80

Measured: T/C

C(=Nc1ccccc1)c1ccccc1C=Nc1ccccc1
inactive: [1] 94 % of control | dose: 100.0 mg/kg/injection, schedule: Q04DX003 (ip), vehicle: saline sonified 100 % of control | [2] 92 % of control | dose: 200.0 mg/kg/injection, schedule: Q04DX003 (ip), vehicle: saline sonified 100 % of control | [3] 94 % of control | dose: 400.0 mg/kg/injection, schedule: Q04DX003 (ip), vehicle: saline sonified 102 % of control

O=C(/C=C1\C(=O)Nc2ccccc21)/C=C1/C(=O)Nc2ccccc21
inactive: dose: 25.0 mg/kg/injection, schedule: Q01DX009 (ip), vehicle: Klucel (hydroxypropylcellulose) (HPC) 97 % of control | dose: 50.0 mg/kg/injection, schedule: Q01DX009 (ip), vehicle: Klucel (hydroxypropylcellulose) (HPC) 104 % of control | dose: 100.0 mg/kg/injection, schedule: Q01DX009 (ip), vehicle: Klucel (hydroxypropylcellulose) (HPC) 95 % of control

NC(N)=NC(N)=Nc1ccc(-c2ccc(N=C(N)N=C(N)N)cc2)cc1
inactive: dose: 0.78 mg/kg/injection, schedule: Q01DX009 (ip), vehicle: saline 100 % of control | dose: 1.56 mg/kg/injection, schedule: Q01DX009 (ip), vehicle: saline 105 % of control | dose: 3.13 mg/kg/injection, schedule: Q01DX009 (ip), vehicle: saline 102 % of control | dose: 6.25 mg/kg/injection, schedule: Q01DX009 (ip), vehicle: saline 111 % of control | dose: 12.5 mg/kg/injection, schedule: Q01DX009 (ip), vehicle: saline 104 % of control | dose: 25.0 mg/kg/injection, schedule: Q01DX009 (ip), vehicle: saline 111 % of control

O=C(O)CCCOc1ccc(Cl)cc1Cl
inactive: [4] 96 % of control | dose: 200.0 mg/kg/injection, schedule: Q04DX003 (ip), vehicle: saline 103 % of control | dose: 400.0 mg/kg/injection, schedule: Q04DX003 (ip), vehicle: saline 97 % of control

NCCc1cc(O)c(O)cc1O
inactive: dose: 50.0 mg/kg/injection, schedule: Q01DX009 (ip), vehicle: saline 93 % of control | dose: 100.0 mg/kg/injection, schedule: Q01DX009 (ip), vehicle: saline 104 % of control

Cn1ncc2c(NCc3ccccc3)ncnc21
inactive: dose: 18.0 mg/kg/injection, schedule: Q01DX009 (ip), vehicle: saline with Tween-80 114 % of control | dose: 37.5 mg/kg/injection, schedule: Q01DX009 (ip), vehicle: saline with Tween-80 115 % of control

COc1cccc2c1C(=O)OC2=O
inactive: dose: 12.5 mg/kg/injection, schedule: Q01DX005 (ip), vehicle: Klucel (hydroxypropylcellulose) (HPC) 101 % of control | dose: 25.0 mg/kg/injection, schedule: Q01DX005 (ip), vehicle: Klucel (hydroxypropylcellulose) (HPC) 101 % of control | dose: 50.0 mg/kg/injection, schedule: Q01DX005 (ip), vehicle: Klucel (hydroxypropylcellulose) (HPC) 95 % of control | dose: 100.0 mg/kg/injection, schedule: Q01DX005 (ip), vehicle: Klucel (hydroxypropylcellulose) (HPC) 94 % of control | dose: 200.0 mg/kg/injection, schedule: Q01DX005 (ip), vehicle: Klucel (hydroxypropylcellulose) (HPC) 95 % of control

c1ccc(C2CC2c2ccccc2)cc1 (centres undefined)
inactive: [5] 100 % of control | [6] 96 % of control | [7] 98 % of control

Cc1cc[n+](CC(=O)CCc2ccc(C(=O)C[n+]3ccc(C)cc3)cc2)cc1
inactive: dose: 1.5 mg/kg/injection, schedule: Q04DX003 (ip), vehicle: saline 100 % of control | dose: 3.0 mg/kg/injection, schedule: Q04DX003 (ip), vehicle: saline 103 % of control | dose: 6.0 mg/kg/injection, schedule: Q04DX003 (ip), vehicle: saline 95 % of control

NCC1OC(OC2C(N)CC(N)C(O)C2OC2OC(CO)C(O)C2O)C(N)C(O)C1O (centres undefined)
inactive: dose: 75.0 mg/kg/injection, schedule: Q04DX003 (ip), vehicle: saline 96 % of control | dose: 150.0 mg/kg/injection, schedule: Q04DX003 (ip), vehicle: saline 102 % of control | dose: 300.0 mg/kg/injection, schedule: Q04DX003 (ip), vehicle: saline 100 % of control

c1cnc2c(c1)Nc1cc3ccccc3cc1N2
inactive: dose: 100.0 mg/kg/injection, schedule: Q04DX002 (ip), vehicle: saline + alcohol 100 % of control | dose: 200.0 mg/kg/injection, schedule: Q04DX002 (ip), vehicle: saline + alcohol 89 % of control | dose: 400.0 mg/kg/injection, schedule: Q04DX002 (ip), vehicle: saline + alcohol 89 % of control

CC(C)COCCCN
inactive: [4] 98 % of control

CCCCN(Cl)CCCC
inactive: dose: 25.0 mg/kg/injection, schedule: Q04DX002 (ip), vehicle: saline with Tween-80 92 % of control | [8] 92 % of control | [9] 103 % of control

CS(=O)(=O)OCCF
inactive: dose: 1.5 mg/kg/injection, schedule: Q04DX003 (ip), vehicle: saline with Tween-80 98 % of control | dose: 3.0 mg/kg/injection, schedule: Q04DX003 (ip), vehicle: saline with Tween-80 98 % of control | dose: 6.0 mg/kg/injection, schedule: Q04DX003 (ip), vehicle: saline with Tween-80 103 % of control

COC(=O)C1C=Cc2ccccc21 (centres undefined)
inactive: [1] 95 % of control | [2] 95 % of control | [3] 104 % of control

O=[N+]([O-])c1ccc(C2Nc3cc(Cl)c(Cl)cc3S(=O)(=O)N2O)cc1 (centres undefined)
inactive: [10] 97 % of control | [9] 107 % of control | [11] 96 % of control | [12] 107 % of control | [13] 96 % of control | [14] 103 % of control

COc1ccc(CCN)cc1O
inactive: [5] 98 % of control | [6] 98 % of control | [7] 98 % of control

Cc1nnc(-c2cn(C3OC(CO)C(O)C3O)c3ncnc(N)c23)nc1C (centres undefined)
inactive: dose: 100.0 mg/kg/injection, schedule: Q01DX005 (ip), vehicle: saline 97 % of control | dose: 200.0 mg/kg/injection, schedule: Q01DX005 (ip), vehicle: saline 96 % of control

CCCCCCCCCCCCCCCCC1CCC2CCCCC12 (centres undefined)
inactive: [10] 104 % of control | [11] 107 % of control | [13] 97 % of control

CC#CC(=O)SCCNC(=O)CC
inactive: [15] 101 % of control | [16] 101 % of control | dose: 25.0 mg/kg/injection, schedule: Q04DX003 (ip), vehicle: saline with Tween-80 112 % of control | [17] 101 % of control | dose: 50.0 mg/kg/injection, schedule: Q04DX003 (ip), vehicle: saline with Tween-80 106 % of control | [18] 86 % of control

N=c1c2ncn(C3CCCC3)c2ncn1OCc1ccccc1
inactive: dose: 100.0 mg/kg/injection, schedule: Q01DX001 (ip), vehicle: other 98 % of control

Nc1ccnn1CCO
inactive: dose: 100.0 mg/kg/injection, schedule: Q04DX003 (ip), vehicle: water 102 % of control | dose: 200.0 mg/kg/injection, schedule: Q04DX003 (ip), vehicle: water 101 % of control | dose: 400.0 mg/kg/injection, schedule: Q04DX003 (ip), vehicle: water 101 % of control

N#CCCCCCCn1cnc2c(N)ncnc21
inactive: [8] 102 % of control | [10] 97 % of control | [9] 105 % of control | [11] 97 % of control | [12] 90 % of control

COc1ccc(C(=Nc2ccc(C)cc2)c2ccc([N+](=O)[O-])cc2)cc1
inactive: [1] 94 % of control | [18] 98 % of control | [2] 98 % of control | dose: 200.0 mg/kg/injection, schedule: Q04DX003 (ip), vehicle: saline with Tween-80 98 % of control | [3] 96 % of control | dose: 400.0 mg/kg/injection, schedule: Q04DX003 (ip), vehicle: saline with Tween-80 98 % of control

C/C=C\c1ccc(OCCOC(=O)Nc2ccc(C)c([N+](=O)[O-])c2)c(OC)c1
inactive: [15] 98 % of control | [16] 92 % of control | [17] 88 % of control and 92 % of control | [2] 88 % of control

Cc1cccc(NC(=O)COc2ccc(Cl)cc2C)c1
inactive: [9] 110 % of control | [12] 94 % of control | [14] 98 % of control

CC/C=C(\C)C(CCC)(CN=O)C(=O)OCC (centres undefined)
inactive: [5] 101 % of control | [6] 97 % of control | [7] 95 % of control

From PubChem BioAssay AID256 (DTP/NCI, 2004)
